Data on two molecules can be found in patent publication US20250205304A1, “CD300LD INHIBITOR AND USE THEREOF IN THE PREPARATION OF TUMOR IMMUNOTHERAPY PRODUCTS” (FUDAN UNIVERSITY, priority 2021, published 2025).

The subject of test [1] is PMN-MDSC. The test is described as follows: T cell proliferation inhibition assay of PMN-MDSC. It counts as cell-based, mice. As to the method: 6-4) T cell proliferation assay: spleens of OT-1 mice were isolated, single-cell suspensions in PBS (5×10^7 cells/ml) were prepared, and CTV dye with a final concentration of […] was added to obtain a mixture. The mixture was incubated in a 37° C. water bath for 20 minutes, added with 5 times the volume of ice pre-cooled RPMI medium (RPMI-1640+10% FBS), mixed by inversion, stood at room temperature for 5 minutes, centrifuged for 5 minutes at 400 g, and then resuspended in RPMI medium (1×10^6 cells/ml). 80 μl of CTV-labeled cells was added with 40 μl of OVA peptide at a concentration of 100 ng/ml, and then supplemented with 80 μl of RPMI medium. The solution was added to the wells of a 96-well U bottom plate and incubated at 37° C. in a carbon dioxide incubator, and then antibody labeling and flow assay were carried out 48-72 hr later.
6-5) T cell proliferation inhibition assay of PMN-MDSC: spleens of B16 tumor-bearing mice were isolated, single-cell suspensions were prepared and labeled with antibodies, and PMN-MDSC cells (CD45^+/CD11b^+/Lying6G^+) were sorted by flow cytometry and resuspended in RPMI medium (1×10^6 cells/ml). 80 μl of CTV-labeled cells in […]) was added with 40 μl of OVA peptide at a concentration of 100 ng/ml, PMN-MDSC cells, and culture medium. […]

The test system of another test is B16 tumor. Kind of test: B16 tumor model with intraperitoneal Tasquinimod. It counts as in vivo, mice. To be noted: for tumor growth: 20 μg/mouse intraperitoneally. The procedure: 7-2) Tumor model: B16 cells (1.5×10^5 cells/mouse) were inoculated into mice subcutaneously, and 20 μg of Tasquinimod/mouse was injected intraperitoneally on day 2. Tumor size was measured every 2-3 days, and tumor growth curves were plotted. Tumors were isolated from mice on day 19, and the percentage of immune cells was determined by flow analysis.

Test [2] has as its system PMN-MDSC. The test is described as follows: PMN-MDSC in vitro cell migration assay (Transwell). In kind it is cell-based, mice. To be noted: KO PMN-MDSCs, 2 hr. The procedure: 6-2) PMN-MDSC in vitro cell migration assay (Transwell): single-cell suspensions were prepared from isolated spleens of tumor-bearing mice and labeled with antibodies, and PMN-MDSC cells (CD45+/CD11b+/Ly6G+) were sorted. 10^5 PMN-MDSC cells were added to the upper layer of Transwell and then placed in a 37° C. incubator for 2 hr, and then the number of PMN-MDSC cells in the lower layer was analyzed by flow assay to calculate the migration ratio of the cells.
7-1) PMN-MDSC in vitro cell migration assay (Transwell): spleens of B16 tumor-bearing mice were isolated, single-cell suspensions were prepared and labeled with antibodies, and PMN-MDSC cells (CD45+/CD11b+/Lying6G+) were sorted by flow cytometry. 10^5 PMN-MDSC cells were added to the upper layer of Transwell and then placed in a 37° C. incubator, and then S100A8/A9 inhibitor (Tasquinimod) or DMSO control with a final concentration of 1 μg/ml was added, the number of PMN-MDSC cells in the lower layer was analyzed by flow-assay after 2 hr, and the percentage of cell migration was calculated.

On to `COc1cccc2c1c(O)c(C(=O)N(C)c1ccc(C(F)(F)F)cc1)c(=O)n2C` [Tasquinimod], for which the “inhibitory effect of PMN-MDSCs on T cell proliferation” value is “little effect” in the test on PMN-MDSC [1] (KO PMN-MDSCs) and “significantly reduced the inhibitory effect” with PMN-MDSC [1] (WT PMN-MDSCs). Also, the tumor growth result in the test on B16 tumor (CD300LD KO mice) was “barely inhibited tumor growth”; with B16 tumor (WT mice), “inhibited tumor growth”. Also, in the test on B16 tumor (tumors isolated on day 19, WT and KO mice), the “proportion of intratumoral PMN-MDSCs” value is recorded as “consistent with the changes of tumors”.

B1: S100A8/A9 proteins: S100A8/A9 proteins added in the in vitro migration assay (protein, UniProt P05109 1-93; P06702 1-114, looked up)
Protein S100-A8: MLTELEKALNSIIDVYHKYSLIKGNFHAVYRDDLKKLLETECPQYIRKKGADVWFKELDINTDGAVNFQEFLILVIKMGVAAHKKSHEESHKE
Protein S100-A9: MTCKMSQLERNIETIINTFHQYSVKLGHPDTLNQGEFKELVRKDLQNFLKKENKNEKVIEHIMEDLDTNADKQLSFEEFIMLMARLTWASHEKMHEGDEGPGHHHKPGLGEGTP
On to B1, for which, in the test with PMN-MDSC [2], the “in vitro migration ability of PMN-MDSC” value is listed as “enhance the weakened migration ability”.
